Source: the NIST ThermoML archive (doi:10.1021/je300111m)
Several values for one entry are separate records, joined by “and”; a condition that tells them apart may be missing. Equal values may be shown once. Numbers after ± are expanded uncertainties.

Conditions: Liquid

| vapor or sublimation pressure (243.23 K) | vapor or sublimation pressure (243.03 K) | vapor or sublimation pressure (293.38 K) | Compound | vapor or sublimation pressure (273.12 K) | vapor or sublimation pressure (222.83 K) | vapor or sublimation pressure (243.02 K) | vapor or sublimation pressure (243.18 K) | vapor or sublimation pressure (243.2 K) | vapor or sublimation pressure (273.13 K) | vapor or sublimation pressure (293.43 K) |
| --- | --- | --- | --- | --- | --- | --- | --- | --- | --- | --- |
| 168 ± 2.8 kPa and 168.2 ± 2.8 kPa | – | – | CCC [propane] | 473.5 ± 7.7 kPa | – | – | – | – | – | – |
| – | 29.1 ± 0.5 kPa | 210.8 ± 3.5 kPa | CCCC [butane] | – | – | – | – | – | – | – |
| – | – | – | S [hydrogen sulfide] | 1030.2 ± 17 kPa | 167.3 ± 2.8 kPa | 384 ± 6.2 kPa | 380.2 ± 6.2 kPa | 379.4 ± 6.2 kPa | 1029.3 ± 17 kPa | 1793.7 ± 29 kPa |
